Laboratory results: the supplement of paper PMC11962398

Assays:
[1] = compound: T1, C[C@H]1CNCCN1c1nccc(-c2noc3c2CCC[C@@]32CCCc3sc(N)c(C#N)c32)n1 [BI-2493]; settings: 5 days
Description: (§1)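 PRISM pooled barcoded cancer cell line viability screen (Broad Institute) with BI-2493 at 8 doses in threefold dilutions from 0.00457 to 10 µmol/L, 5-day treatment; curves fitted per cell line. IC50 is undefined (placeholder) for resistant lines. AUC is capped at 1, and sensitivity is reported as 1 − AUC.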

[2] = compound: T1, BI-2493; assay: 1 - AUC of viability dose-response curve (sensitivity) (fraction); higher = more sensitive; settings: 5 days
Description: as §1

| Test System | IC50 of cell viability [1] [µM] | 1 - AUC of viability dose-response curve [2] |
| --- | --- | --- |
| OCIM1_HAEMATOPOIETIC_AND_LYMPHOID_TISSUE | 6.84 | 0.0683 |
| OCIP5X_OVARY | 9.58 | 0.00791 |
| OCUG1_BILIARY_TRACT | 4.77 | 0.132 |
| OE19_OESOPHAGUS | 4.24 | 0.168 |
| OE21_OESOPHAGUS | 3.82 | 0.112 |
| OE33_OESOPHAGUS | 8.75 | 0.041 |
| ONCODG1_OVARY | 8.36 | 0.0507 |
| ONDA9_CENTRAL_NERVOUS_SYSTEM | 5.1 | 0.0973 |
| ONS76_CENTRAL_NERVOUS_SYSTEM | 5.21 | 0.133 |
| OSC20_UPPER_AERODIGESTIVE_TRACT | 9.09 | 0.165 |
| OSRC2_KIDNEY | 4.48 | 0.0909 |
| OUMS23_LARGE_INTESTINE | 8.65 | 0.165 |
| OV17R_OVARY | 9.34 | 0.044 |
| OV56_OVARY | > 10 | 0.0641 |
| OVCAR8_OVARY | 9.61 | 0.00937 |
| OVISE_OVARY | 4.17 | 0.105 |
| OVK18_OVARY | 1.81 | 0.228 |
| OVKATE_OVARY | 4.22 | 0.086 |
| OVTOKO_OVARY | 4.32 | 0.123 |
| OZ_BILIARY_TRACT | 6.81 | 0.0583 |
| P12ICHIKAWA_HAEMATOPOIETIC_AND_LYMPHOID_TISSUE | 3.63 | 0.121 |
| PA1_OVARY | 1.45 | 0.176 |
| PACADD119_PANCREAS | 4.59 | 0.169 |
| PACADD137_PANCREAS | 8.11 | 0.104 |

| Test System | IC50 of cell viability [1] [µM] | 1 - AUC of viability dose-response curve [2] |
| --- | --- | --- |
| PACADD161_PANCREAS | 5.87 | 0.185 |
| PANC1_PANCREAS | 4.69 | 0.128 |
| PANC0203_PANCREAS | 1.16 | 0.327 |
| PANC0327_PANCREAS | 7.84 | 0.138 |
| PANC0403_PANCREAS | 0.501 | 0.379 |
| PANC0504_PANCREAS | 1.18 | 0.286 |
| PANC0813_PANCREAS | 7.44 | 0.27 |
| PANC1005_PANCREAS | 3.98 | 0.121 |
| PATU8902_PANCREAS | 6.58 | 0.0766 |
| PATU8988S_PANCREAS | 1.14 | 0.197 |
| PATU8988T_PANCREAS | 4.5 | 0.0812 |
| PC3_PROSTATE | > 10 | 0.0397 |
| PC14_LUNG | 3.98 | 0.181 |
| PEA1_OVARY | 5.96 | 0.0757 |
| PECAPJ15_UPPER_AERODIGESTIVE_TRACT | 5.35 | 0.125 |
| PECAPJ41CLONED2_UPPER_AERODIGESTIVE_TRACT | 8.74 | 0.0352 |
| PECAPJ49_UPPER_AERODIGESTIVE_TRACT | 5.93 | 0.0961 |
| PEDS005TPFAD_KIDNEY | 4.24 | 0.199 |
| PEDS005TSUSP_KIDNEY | 7.58 | 0.0633 |
| PEDS015T_SOFT_TISSUE | > 10 | 0.0985 |
| PF382_HAEMATOPOIETIC_AND_LYMPHOID_TISSUE | 5.53 | 0.102 |
| PFSK1_CENTRAL_NERVOUS_SYSTEM | > 10 | 0.063 |
| PK1_PANCREAS | 6.81 | 0.131 |
| PK8_PANCREAS | 2.17 | 0.161 |

| Test System | IC50 of cell viability [1] [µM] | 1 - AUC of viability dose-response curve [2] |
| --- | --- | --- |
| PK45H_PANCREAS | 4.3 | 0.168 |
| PK59_PANCREAS | 1.05 | 0.336 |
| PL21_HAEMATOPOIETIC_AND_LYMPHOID_TISSUE | 0.451 | 0.358 |
| PLCPRF5_LIVER | 5.13 | 0.132 |
| PMFKO14_LARGE_INTESTINE | 7.87 | 0.106 |
| PSN1_PANCREAS | 9.23 | 0.137 |
| QGP1_PANCREAS | 1.55 | 0.253 |
| RBE_BILIARY_TRACT | 2.47 | 0.243 |
| RCC10RGB_KIDNEY | 6.59 | 0.0818 |
| RCHACV_HAEMATOPOIETIC_AND_LYMPHOID_TISSUE | 4.98 | 0.198 |
| RCK8_HAEMATOPOIETIC_AND_LYMPHOID_TISSUE | 4.38 | 0.0825 |
| RCM1_LARGE_INTESTINE | 1.73 | 0.271 |
| RDES_BONE | 9.6 | 0.0344 |
| RD_SOFT_TISSUE | 9.09 | 0.0771 |
| RERFGC1B_STOMACH | 3.33 | 0.262 |
| RERFLCAD1_LUNG | 4.27 | 0.18 |
| RERFLCAD2_LUNG | 4.39 | 0.12 |
| RERFLCKJ_LUNG | 8.19 | 0.0525 |
| RERFLCMS_LUNG | 8.02 | 0.037 |
| RH4_SOFT_TISSUE | 6.58 | 0.0866 |
| RH28_SOFT_TISSUE | 5.97 | 0.0907 |
| RH30_SOFT_TISSUE | 9.22 | 0.0138 |
| RH36_SOFT_TISSUE | 6.76 | 0.119 |
| RI1_HAEMATOPOIETIC_AND_LYMPHOID_TISSUE | 6.4 | 0.106 |

| Test System | IC50 of cell viability [1] [µM] | 1 - AUC of viability dose-response curve [2] |
| --- | --- | --- |
| RKO_LARGE_INTESTINE | 7.43 | 0.0968 |
| RL952_ENDOMETRIUM | 3.87 | 0.108 |
| RL_HAEMATOPOIETIC_AND_LYMPHOID_TISSUE | 4.21 | 0.0967 |
| RMGI_OVARY | 9.09 | 0.0414 |
| RMSYM_SOFT_TISSUE | 6.04 | 0.119 |
| RMUGS_OVARY | 5.26 | 0.122 |
| RO82W1_THYROID | 5.35 | 0.123 |
| RPMI7951_SKIN | 6.06 | 0.0692 |
| RPMI8402_HAEMATOPOIETIC_AND_LYMPHOID_TISSUE | 6.85 | 0.0899 |
| RT4_URINARY_TRACT | 5.51 | 0.147 |
| RT112_URINARY_TRACT | 1.22 | 0.281 |
| RVH421_SKIN | 5.43 | 0.133 |
| S117_THYROID | 4.21 | 0.0998 |
| SAOS2_BONE | 9.58 | 0.0212 |
| SBC5_LUNG | 5.31 | 0.122 |
| SCC3_HAEMATOPOIETIC_AND_LYMPHOID_TISSUE | 8.83 | 0.0243 |
| SCC9_UPPER_AERODIGESTIVE_TRACT | 6.27 | 0.11 |
| SCC25_UPPER_AERODIGESTIVE_TRACT | 5.3 | 0.128 |
| SCLC21H_LUNG | 7.84 | 0.0414 |
| SF126_CENTRAL_NERVOUS_SYSTEM | 4.43 | 0.0902 |
| SF295_CENTRAL_NERVOUS_SYSTEM | 9.02 | 0.0199 |
| SF539_CENTRAL_NERVOUS_SYSTEM | 9.12 | 0.173 |
| SG231_BILIARY_TRACT | 2.09 | 0.286 |
